Patent publication US6159735A, “Calcitonin/calcitonin gene related peptide enhancer element and associated DNA binding proteins” (University of Iowa Research Foundation, priority 1995, dated 2000)
Like-named read-outs stand apart in the source and are kept apart here.

Experiments:
CT/CGRP enhancer [1] = assay: CT/CGRP promoter/enhancer luciferase reporter transfection assay in CA77 cells; assay type: cell-based, rat
[2] = test system: H/OB, OB2, HB1 and Oct-1 complexes on CT/CGRP enhancer; assay: Electrophoretic mobility shift assay of CT/CGRP enhancer complexes in CA77 nuclear extracts; assay type: biochemical, rat; conditions: nuclear extracts from CA77 cells treated 24 hours with retinoic acid
Experimental: To perform electrophoretic mobility shift assays, nuclei were harvested from approximately 10^8 cells using a previously described miniextract preparation protocol, with one modification (Lee, K. A. W., and Green, M. R. (1990) Methods Enzymol. 181, 20-25). Instead of dialyzing the extract to remove excess NaCl, the extract was diluted 1:1 with extract buffer lacking NaCl. Aliquots of the diluted extract were stored at -70° C. Annealed oligonucleotide duplexes (10 pmol) containing recessed 3' termini were labeled for use as probes by incorporation of [^32 P]dATP (25 μCi, 3000 Ci/mmol) using Klenow DNA polymerase. Both strands of blunt-ended oligonucleotides (10 pmol) were labeled separately using T4 polynucleotide kinase and [γ-^32 P]ATP (20 μCi, 3000 Ci/mmol), then annealed. Unlabeled oligonucleotides used for competition assays were annealed and then treated with Klenow DNA polymerase if the ends were not already blunt. All probes and competitor DNAs were purified over Sephadex G50 columns.
The binding reaction (20 μl) contained approximately 3 μg (1-2 μl) of nuclear extract, 0.02 pmol of ^32 P-labeled DNA probe (50,000-100,000 cpm), 10 mM Tris-HCl, pH 7.5, 5% glycerol, 50 mM NaCl, 1 mM EDTA, and 1 mM dithiothreitol. Also, 0.1 μg of poly [d(I-C)] […] Unlabeled competitors were preincubated with nuclear extracts 10 minutes on ice prior to addition of probe. […]

CT/CGRP enhancer [3] = assay: CT/CGRP promoter/enhancer reporter gene (luciferase/CAT) transfection assay in 44-2C cells
Text: (§1) The 44-2C rat medullary thyroid carcinoma cell line was maintained in DMEM (high glucose) with 1% equine serum (HyClone Laboratories, Logan, Utah) and 0.1% L-glutamine; CA77 rat medullary thyroid carcinoma cells in Ham's F-12 medium/DMEM (low glucose)(1:1) with 10% fetal bovine serum (HyClone Laboratories); HeLa human epithelial derived cells in Ham's F-12 medium with 10% fetal bovine serum; and Rat1 fibroblast cells in DMEM (high glucose) with 10% calf serum. Also, 100 units/ml penicillin and 100 μg/ml streptomycin (GIBCO) were added to each culture medium.
(§2) Transfections were carried out by growing cells to approximately 80% confluency, harvesting them by brief trypsin/EDTA treatment, and resuspending them in Ca^2+ /Mg^2+ -free PBS.
In the retinoic acid experiments, the cells were treated essentially as above except that an apparently critical parameter for retinoic acid inhibition was that the CA77 cells could not be aggregated into clumps. To be consistent, all cell types were subcultured by trypsin treatment 1 day prior to the experiment, except for the 44-2C cells, which often required 2 days to firmly attach. About 4-5×10^6 cells in 0.8 ml were transfected with supercoiled DNA by electroporation using a Biorad Gene Pulser apparatus at 200 volts for the CA77 cells, 220 volts for the HeLa cells, and 260 volts for the 44-2C cells, all with a capacitance of 960 microfarads. The same amount of DNA (20 μg) was used per cuvette unless otherwise indicated. For the α-RXR cotransfection assays, 10 μg 18 bp CT/CGRP-TK-luc plasmid, 18 μg RSV-α-RAR plasmid, or 2 μg β-actin-RXR plasmid (brought to 30 μg total DNA with CMV-β-gal plasmid) were transfected into the cells (constructs described in Glass, C. K., S. M. Lipkin, O. V. Devary, and M. G. Rosenfeld (1989) Cell 59, 697-708; Glass, C. K., O. V. Devary, and M. G. Rosenfeld (1990) Cell 63, 729-738). The transfected cells from a single cuvette were then split between two 60 mm dishes and treated with 1 mM retinoic acid (Sigma) or the vehicle (0.01% ethanol). About 50 to 80% cell survival of the electroporation procedure was observed, except the 44-2C cells, in which approximately 25% of the cells were recovered. The cells were harvested 18-25 hours after transfection. Activities are reported per 50 μg protein unless otherwise noted.
Activity of the reporter genes and control constructs was measured by luciferase, CAT, or β-Galactosidase assays.

CT/CGRP enhancer [4] = assay: CT/CGRP promoter/enhancer luciferase reporter transfection assay in HeLa cells; assay type: cell-based, human
[5] = molecular target: nuclear retinoic acid receptor (RAR); conditions: literature; read-out: nuclear retinoic acid receptor (RAR) binding affinity Kd; cited from earlier work
calcitonin and CGRP mRNA = conditions: CA77 cells, retinoic acid treatment, literature; cited from earlier work
[6] = test system: retinoic acid responsive element from the β-retinoic acid receptor gene (RARE-TK-luc); assay: cells; conditions: Rattus norvegicus
Experimental: In the retinoic acid experiments, the cells were treated essentially as above except that an apparently critical parameter for retinoic acid inhibition was that the CA77 cells could not be aggregated into clumps. […] About 4-5×10^6 cells in 0.8 ml were transfected with supercoiled DNA by electroporation using a Biorad Gene Pulser apparatus at 200 volts for the CA77 cells, 220 volts for the HeLa cells, and 260 volts for the 44-2C cells, all with a capacitance of 960 microfarads. The same amount of DNA (20 μg) was used per cuvette unless otherwise indicated. For the α-RXR cotransfection assays, 10 μg 18 bp CT/CGRP-TK-luc plasmid, 18 μg RSV-α-RAR plasmid, or 2 μg β-actin-RXR plasmid (brought to 30 μg total DNA with CMV-β-gal plasmid) were transfected into the cells (constructs described in Glass, C. K., S. M. Lipkin, O. V. Devary, and M. G. Rosenfeld (1989) Cell 59, 697-708; Glass, C. K., O. V. Devary, and M. G. Rosenfeld (1990) Cell 63, 729-738). The transfected cells from a single cuvette were then split between two 60 mm dishes and treated with 1 mM retinoic acid (Sigma) or the vehicle (0.01% ethanol). […] The cells were harvested 18-25 hours after transfection. Activities are reported per 50 μg protein unless otherwise noted.
Activity of the reporter genes and control constructs was measured by luciferase, CAT, or β-Galactosidase assays. To carry out the luciferase assays, cells were washed twice in PBS, harvested by scraping into PBS and then lysed in 100 μl of Triton lysis buffer (1% Triton X-100, 25 mM glycylclycine, pH 7.8, 15 mM MgSO4, 1 mM dithiothreitol). After centrifugation, 20-50 μl of supernatant cell extract was assayed for luciferase activity as previously described (Braiser, A. R., Tate, J. E., and Habener, J. F. (1989) Biotechniques 7, 1116-1122) using a luminometer (Analytical Luminescence Laboratory Monolight 2001). The assay was linear between 100 (background) and at least 800,000 light units.

[7] = test system: cytomegalovirus promoter / thymidine kinase promoter; assay: Control reporter genes CMV-luc and TK-luc in CA77 and 44-2C cells; assay type: cell-based, rat; conditions: 1 μM retinoic acid
CT/CGRP enhancer [8] = assay: CT/CGRP promoter/enhancer luciferase reporter transfection assay in Rat1 fibroblast cells; assay type: cell-based, rat
Text: Reporter fusion genes were constructed for experiments to localize cis-active elements responsible for glucocorticoid repression of the CT/CGRP gene.
as §1, §2
Activity of the reporter genes and control constructs was measured by luciferase, CAT, or β-Galactosidase assays. […] After centrifugation, 20-50 μl of supernatant cell extract was assayed for luciferase activity as previously described (Braiser, A. R., Tate, J. E., and Habener, J. F. (1989) Biotechniques 7, 1116-1122) using a luminometer (Analytical Luminescence Laboratory Monolight 2001). […]

## CC1=C(/C=C/C(C)=C/C=C/C(C)=C/C=O)C(C)(C)CCC1 [Retinal, retinal]
CT/CGRP enhancer [1]; Rattus norvegicus, 1125 CAL-luc, read-out: concentrations at which CT/CGRP promoter activity was repressed
  minimal effective concentration: ≥ 0.1 µM
CT/CGRP enhancer [1]; Rattus norvegicus, 1125 CAL-luc, read-out: half-maximal repression of CT/CGRP promoter activity
  IC50: 300 nM

## CC1=C(/C=C/C(C)=C/C=C/C(C)=C/C(=O)O)C(C)(C)CCC1 [retinoic acid]
[2]
  change in OB2, HB1, or Oct-1 complexes: no significant change
  decrease in H/OB complex (densitometric scans): ~2 fold
CT/CGRP enhancer [1]
  retinoic acid dependent repression with 75 bp and 18 bp fragments (TK-luc): comparable to the full 205 bp region
  retinoic acid dependent repression with 1039-1125-TK-luc and 920-1038-TK-luc: Neither 1039-1125-TK-luc nor 920-1038-TK-luc exhibited retinoic acid dependent repression
  retinoic acid repression with HLH or Oct mutant constructs: neither the HLH or Oct mutant constructs conferred retinoic acid repression
CT/CGRP enhancer [1]; 100 nM retinoic acid
  maximal repression of 1125 CAL-luc, decrease of control activity: 3 fold
CT/CGRP enhancer [1]; 1 μM retinoic acid
  repression of promoter fragments containing 920 bp or less: not repressed
CT/CGRP enhancer [1]; 1 μM retinoic acid, 24 hours
  decrease in promoter activity of luciferase fusion genes containing 1125 bp or more 5' flanking sequences: 2-3 fold
CT/CGRP enhancer [1]; 1 μM retinoic acid, parallel cultures
  repression in CAL1125-luc activity without cotransfected receptor: 2 fold
CT/CGRP enhancer [1]; 1 μM retinoic acid, α-RAR expression vector
  retinoic acid dependent repression in CAL1125-luc activity with cotransfected α-RAR: 5 fold
CT/CGRP enhancer [1]; Rattus norvegicus, read-out: amount required for half-maximal repression of 1125 CAL-luc
  IC50: ~0.2 nM
CT/CGRP enhancer [3]; 44-2C cells, 1 μM retinoic acid
  repression of 1125-920-TK-luc activity: 2 fold
CT/CGRP enhancer [4]; HeLa cells, 1 μM retinoic acid, also with α-RAR/α-RXR cotransfection
  effect on 1125-920-TK-luc activity: no effect
[5]
  Kd: 0.2 nM
Calcitonin and CGRP mRNA
  decrease in calcitonin and CGRP mRNA levels: 2-3 fold
[6]; read-out: increase in RARE-TK-luc activity, 44-2C cells, 1 μM retinoic acid
  fold induction at 1 µM: 35
[6]; read-out: increase in RARE-TK-luc activity, CA77 cells, 1 μM retinoic acid, no cotransfected receptor
  fold induction at 1 µM: 5
[6]; read-out: retinoic acid dependent stimulation of RARE-TK-luc activity with cotransfected α-RAR, CA77 cells, 1 μM retinoic acid, α-RAR expression vector
  fold induction at 1 µM: 15
[7]; 44-2C cells
  effect on TK-luc activity: no effect
[7]; CA77 cells
  effect on CMV-luc and TK-luc: not significantly affected

## C[C@@H]1C[C@H]2[C@@H]3CCC4=CC(=O)C=C[C@]4(C)[C@@]3(F)[C@@H](O)C[C@]2(C)[C@@]1(O)C(=O)CO [dexamethasone]
CT/CGRP enhancer [1]; dexamethasone treatment
  repression of calcitonin/CGRP promoter fusion genes containing the -920-1125-bp element: did not repress
CT/CGRP enhancer [1]; p<0.01
  repression with smaller elements that include the 18-bp region (TK-LUC): 1.6 fold
CT/CGRP enhancer [1]; p<0.05
  repression of activity of the -920-1125-bp region (TK-LUC): 1.2 fold
CT/CGRP enhancer [3]; 44-2C cells, 500 nM dexamethasone
  repression of -920-1125 TK-LUC fusion gene expression: 2.5-3 fold
CT/CGRP enhancer [3]; 44-2C cells, 500 nM dexamethasone, 24 h
  repression of promoter activity of fusion genes containing at least 1125 bp of upstream sequences: 2.5-4.5 fold
CT/CGRP enhancer [3]; 44-2C cells, 500 nM dexamethasone, a few experiments
  repression of -920-1125 TK-LUC fusion gene expression, in a few experiments: ≤ 10 fold
CT/CGRP enhancer [3]; 44-2C cells, 500 nM dexamethasone, constructs lacking -920-1125 region
  effect on gene activity from the shorter constructs: slightly stimulated
CT/CGRP enhancer [3]; 44-2C cells, dexamethasone
  repression with -1091-1017 and -1043-1025 elements (TK-LUC): 24 fold
CT/CGRP enhancer [3]; 44-2C cells, dexamethasone concentrations above 50 nM, 24 h
  repression of -920-1125-TK-LUC promoter activity in dose response: approximately 10 fold
CT/CGRP enhancer [3]; Rattus norvegicus, 24 h, read-out: dexamethasone concentration for half-maximal inhibition of -920-1125-TK-LUC
  IC50: 2.5 nM
CT/CGRP enhancer [4]; HeLa cells
  repression of activity of the -920-1125 enhancer: did not repress
CT/CGRP enhancer [4]; non-neuroendocrine cells
  stimulation of reporter activity of all plasmids including TK-LUC: 1.5-2 fold
CT/CGRP enhancer [8]
  repression of activity of the -920-1125 enhancer: did not repress
